# Results published in PubChem BioAssay (NCI).
#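 48-hour exposure; five concentrations; linearly interpolated endpoints. At the GI50, growth is halved. TGI denotes the concentration required for complete inhibition of growth.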
# Test system: KM12 colon
# Assay: NCI tumour cell line growth inhibition, 48 h
SMILES,GI50 [µM],TGI [µM]
COc1cc(Nc2c(C#N)cnc3cc(OCCCN4CCN(C)CC4)c(OC)cc23)c(Cl)cc1Cl,0.331,7.24
O=CN/C=C/c1cccc(O)c1,,> 100
Nc1ccc2c(SCc3ccc([N+](=O)[O-])cc3)c3ccccc3nc2c1,,27
O=c1ccn(C2CC(O)C(CO)O2)c(=O)[nH]1 (stereo unspecified),> 5000,> 5000
O=C(N/C(=C/c1ccc(Cl)cc1Cl)c1nc2ccccc2s1)c1ccccc1,,26.5
CCOC(=O)c1cc2c(n1Cc1cccc(OC)c1)-c1oncc1CCC2,0.58,> 100
COc1c(O)cc2oc(-c3ccc(O)cc3)cc(=O)c2c1O,,> 100
COc1cccc(-c2nn(-c3ccccc3)cc2-c2ccnc(NCCCNC(=O)Nc3ccc(Cl)c(Cl)c3)c2)c1,2.75,11.3
COc1cc2ccccc2oc1=O,,> 100
Nc1nc(N)c2nc(CNc3ccc(C(=O)NC(CC(=O)O)C(=O)O)cc3)cnc2n1 (stereo unspecified),0.897,> 100
COc1cc2c3c(n(CCCCN)c(=O)c2cc1OC)-c1cc2c(cc1C3=O)OCO2,1.72,6.32
N#CCCN(CCCN(CCCN(C(=O)Nc1ccccc1)c1ccccc1)C(=O)Nc1ccccc1)C(=O)Nc1ccccc1,18.7,> 100
NC(=O)c1ccccc1Nc1ccc2nnc(-c3ccncc3)n2n1,9.34,21.2
COc1cccc2c1ccc1nc3cccc(C(=O)N[C@H](C)CN(C)C)c3nc12,0.0724,2.33
NC(=O)c1ccc(I)c(N=O)c1,40.7,> 100
COc1ccc2c(=O)cc(-c3ccncc3)oc2c1OC,,96.2

# Test system: NCI-H226 lung
# Assay: NCI tumour cell line growth inhibition, 48 h
SMILES,GI50 [µM],TGI [µM]
C[C@]12CCc3sc(NCCc4ccccc4)nc3C1=CC[C@@H]1[C@@H]2CC[C@]2(C)C(=O)CC[C@@H]12,2.42,6.57
COc1cccc(C2=C(c3c(C)n(C)c4ccccc34)C(=O)NC2=O)c1,> 19.1,> 25
CCN(Cc1ccc(F)cc1)c1ccc(CO)c(F)c1,0.171,0.364
O=C(Cn1c(=O)c(-c2ccccc2)nc2ccccc21)Nc1ccc(F)cc1,> 100,> 100
CN(C)CCNC(=O)c1cc([N+](=O)[O-])cc2c1Oc1ccccc1O2,,50
O=C1C(N2CC2)=C(N2CC2)C(=O)C(N2CC2)=C1N1CC1,0.157,0.714
O=C(O)C1OC1(c1cccc(Cl)c1)c1ccccc1Cl (stereo unspecified),,83.8
CCCCC[C@H]1C/C=C2/C(=O)C=C[C@@H]2C/C=C\CCCC(=O)O[C@@H](CCCCC)C/C=C2/C(=O)C=C[C@@H]2C/C=C\CCCC(=O)O1,0.746,1.64
O=C(Nc1cccc(-n2cc(-c3ccncc3)c(-c3cc(O)cc(Cl)c3)n2)c1)Nc1ccc(Cl)c(C(F)(F)F)c1,2.47,8.96
CNCCCn1c2c(c3ccc([N+](=O)[O-])cc3c1=O)C(=O)c1cc(OC)cnc1-2,0.0946,0.245
Cc1cc(Cl)ccc1Nc1nc(C(F)(F)F)ccc1C(=O)N/N=C/c1ccc(Cl)cc1,1.21,3.82
COc1cc2oc3cc(=O)cc4oc(-c5ccccc5)cc(c2c2c1CCC(c1ccccc1)O2)c43 (stereo unspecified),,> 100
c1cc2n(n1)CCN2,,> 9350
COc1cc(Nc2c(C#N)cnc3cc(OCCCN4CCN(C)CC4)c(OC)cc23)c(Cl)cc1Cl,12.1,34.5
O=CN/C=C/c1cccc(O)c1,,89.2
Nc1ccc2c(SCc3ccc([N+](=O)[O-])cc3)c3ccccc3nc2c1,,38.3
O=c1ccn(C2CC(O)C(CO)O2)c(=O)[nH]1 (stereo unspecified),> 5000,> 5000
O=C(N/C(=C/c1ccc(Cl)cc1Cl)c1nc2ccccc2s1)c1ccccc1,,27.7
CCOC(=O)c1cc2c(n1Cc1cccc(OC)c1)-c1oncc1CCC2,32.1,> 100
COc1c(O)cc2oc(-c3ccc(O)cc3)cc(=O)c2c1O,,> 100
COc1cccc(-c2nn(-c3ccccc3)cc2-c2ccnc(NCCCNC(=O)Nc3ccc(Cl)c(Cl)c3)c2)c1,5.61,41.6
COc1cc2ccccc2oc1=O,,> 100
Nc1nc(N)c2nc(CNc3ccc(C(=O)NC(CC(=O)O)C(=O)O)cc3)cnc2n1 (stereo unspecified),30.6,> 100
COc1cc2c3c(n(CCCCN)c(=O)c2cc1OC)-c1cc2c(cc1C3=O)OCO2,0.492,1.58
N#CCCN(CCCN(CCCN(C(=O)Nc1ccccc1)c1ccccc1)C(=O)Nc1ccccc1)C(=O)Nc1ccccc1,,> 100
NC(=O)c1ccccc1Nc1ccc2nnc(-c3ccncc3)n2n1,15,44.4
NC(=O)c1ccc(I)c(N=O)c1,58.8,> 100

# Test system: SK-OV-3 ovarian
# Assay: NCI tumour cell line growth inhibition, 48 h
SMILES,GI50 [µM],TGI [µM]
C[C@]12CCc3sc(NCCc4ccccc4)nc3C1=CC[C@@H]1[C@@H]2CC[C@]2(C)C(=O)CC[C@@H]12,> 100,> 100
COc1cccc(C2=C(c3c(C)n(C)c4ccccc34)C(=O)NC2=O)c1,> 25,> 25
CCN(Cc1ccc(F)cc1)c1ccc(CO)c(F)c1,15.9,80.7
O=C(Cn1c(=O)c(-c2ccccc2)nc2ccccc21)Nc1ccc(F)cc1,64.8,> 100
O=C1C(N2CC2)=C(N2CC2)C(=O)C(N2CC2)=C1N1CC1,0.123,0.891
O=C(O)C1OC1(c1cccc(Cl)c1)c1ccccc1Cl (stereo unspecified),,66.8
CCCCC[C@H]1C/C=C2/C(=O)C=C[C@@H]2C/C=C\CCCC(=O)O[C@@H](CCCCC)C/C=C2/C(=O)C=C[C@@H]2C/C=C\CCCC(=O)O1,0.824,2.39
O=C(Nc1cccc(-n2cc(-c3ccncc3)c(-c3cc(O)cc(Cl)c3)n2)c1)Nc1ccc(Cl)c(C(F)(F)F)c1,4.11,30.7
CNCCCn1c2c(c3ccc([N+](=O)[O-])cc3c1=O)C(=O)c1cc(OC)cnc1-2,0.0568,0.351
Cc1cc(Cl)ccc1Nc1nc(C(F)(F)F)ccc1C(=O)N/N=C/c1ccc(Cl)cc1,1.69,5.57
COc1cc2oc3cc(=O)cc4oc(-c5ccccc5)cc(c2c2c1CCC(c1ccccc1)O2)c43 (stereo unspecified),,> 100
c1cc2n(n1)CCN2,,> 7350
COc1cc(Nc2c(C#N)cnc3cc(OCCCN4CCN(C)CC4)c(OC)cc23)c(Cl)cc1Cl,0.884,12.3
O=CN/C=C/c1cccc(O)c1,,> 100
Nc1ccc2c(SCc3ccc([N+](=O)[O-])cc3)c3ccccc3nc2c1,,42.7
O=c1ccn(C2CC(O)C(CO)O2)c(=O)[nH]1 (stereo unspecified),> 5000,> 5000
O=C(N/C(=C/c1ccc(Cl)cc1Cl)c1nc2ccccc2s1)c1ccccc1,,79.3
CCOC(=O)c1cc2c(n1Cc1cccc(OC)c1)-c1oncc1CCC2,3.48,> 100
COc1c(O)cc2oc(-c3ccc(O)cc3)cc(=O)c2c1O,,> 100
COc1cccc(-c2nn(-c3ccccc3)cc2-c2ccnc(NCCCNC(=O)Nc3ccc(Cl)c(Cl)c3)c2)c1,4.92,18.6
Nc1nc(N)c2nc(CNc3ccc(C(=O)NC(CC(=O)O)C(=O)O)cc3)cnc2n1 (stereo unspecified),> 53.5,> 100
COc1cc2c3c(n(CCCCN)c(=O)c2cc1OC)-c1cc2c(cc1C3=O)OCO2,1.23,9.41
N#CCCN(CCCN(CCCN(C(=O)Nc1ccccc1)c1ccccc1)C(=O)Nc1ccccc1)C(=O)Nc1ccccc1,> 100,> 100
NC(=O)c1ccccc1Nc1ccc2nnc(-c3ccncc3)n2n1,15.4,44.4
COc1cccc2c1ccc1nc3cccc(C(=O)N[C@H](C)CN(C)C)c3nc12,0.144,1.89
NC(=O)c1ccc(I)c(N=O)c1,> 100,> 100
COc1ccc2c(=O)cc(-c3ccncc3)oc2c1OC,,> 100
